Source: patent publication US7495104B2, “Quinoline or quinazoline derivatives inhibiting auto-phosphorylation of fibroblast growth factor receptors” (Kirin Beer Kabushiki Kaisha, priority 2001, dated 2009)

Molecular target: Bek (Homo sapiens, UniProt P21802)
Assay: Inhibitory activity against Bek-autophosphorylation using ELISA method in OCUM-2MD3 cells
Type: cell-based
Conditions: 1 hr with compound, read-out: IC50 (concentration necessary for inhibiting 50% of Bek-phosphorylation)
Method in brief: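 Sandwich ELISA (anti-phosphotyrosine capture, anti-Bek detection, peroxidase, 450 nm) measured Bek autophosphorylation in OCUM-2MD3 lysates after 1 hr compound treatment at 37° C in 0.1% serum medium. IC50 derived by scaling between no-drug (100%) and excess positive control at 1000 nM (0%).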

Bek, sequence (P21802 431-767 limits assumed): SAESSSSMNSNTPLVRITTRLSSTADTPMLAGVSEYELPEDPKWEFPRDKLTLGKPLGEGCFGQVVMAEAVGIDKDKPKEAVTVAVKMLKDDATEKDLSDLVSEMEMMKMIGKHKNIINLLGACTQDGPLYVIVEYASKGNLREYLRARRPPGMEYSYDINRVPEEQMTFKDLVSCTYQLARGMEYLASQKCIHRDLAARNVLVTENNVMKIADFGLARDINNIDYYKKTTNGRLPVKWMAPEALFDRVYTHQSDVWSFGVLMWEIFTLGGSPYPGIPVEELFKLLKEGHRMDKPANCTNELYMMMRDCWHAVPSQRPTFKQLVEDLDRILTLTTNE

Row | Structure (SMILES) | IC50 [nM]
1 | COc1cc2c(Oc3ccc(NC(=O)NCCC(C)(C)C)cc3)ccnc2cc1OCC(O)CN1CCC(Cc2ccccc2)CC1 (stereo not drawn) [Compound 260, 1-(4-{7-[3-(4-Benzyl-piperidin-1-yl)-2-hydroxy-propoxy]-6-methoxy-quinolin-4-yloxy}-phenyl)-3-(3,3-dimethyl-butyl)-urea] | 26.7
2 | COc1cc2c(Oc3ccc(NC(=O)NCCC(C)(C)C)cc3)ccnc2cc1OCC(O)CN1CCC(N2CCCCC2)CC1 (stereo not drawn) [Compound 261, 1-{4-[7-(3-[1,4′]Bipiperidineyl-1′-yl-2-hydroxy-propoxy)-6-methoxy-quinolin-4-yloxy]-phenyl}-3-(3,3-dimethyl-butyl)-urea] | < 10
3 | COc1cc2c(Oc3ccc(NC(=O)NCCC(C)(C)C)cc3)ccnc2cc1OCCCN1CCC[C@H]1CO [Compound 263, 1-(3,3-Dimethyl-butyl)-3-(4-{7-[3-(2-hydroxymethyl-pyrrolidin-1-yl)-propoxy]-6-methoxy-quinolin-4-yloxy}-phenyl)-urea] | < 10
4 | COc1cc2c(Oc3ccc(NC(=O)NCCC(C)(C)C)cc3)ccnc2cc1OCCCN1CCC(CO)CC1 [Compound 265, 1-(3,3-Dimethyl-butyl)-3-(4-{7-[3-(4-hydroxymethyl-piperidin-1-yl)-propoxy]-6-methoxy-quinolin-4-yloxy}-phenyl)-urea] | < 10
5 | COc1cc2c(Oc3ccc(NC(=O)NCCC(C)(C)C)c(Cl)c3)ccnc2cc1OCCCN1CCC(O)CC1 [Compound 268, 1-(2-Chloro-4-{7-[3-(4-hydroxy-piperidin-1-yl)-propoxy]-6-methoxy-quinolin-4-yloxy}-phenyl)-3-(3,3-dimethyl-butyl)-urea] | 15.7
6 | COCCNCCCOc1cc2nccc(Oc3ccc(NC(=O)NCCC(C)(C)C)cc3)c2cc1OC [Compound 271, 1-(3,3-Dimethyl-butyl)-3-(4-{6-methoxy-7-[3-(2-methoxy-ethylamino)-propoxy]-quinolin-4-yloxy}-phenyl)-urea] | 33.2

Continued, values first:

Row | IC50 [nM] | Structure (SMILES)
7 | 46.6 | COc1cc2c(Oc3ccc(Nc4ccc(C(C)(C)C)cc4)cc3)ccnc2cc1OCC(O)CN1CCC(N2CCCC2)CC1 (stereo not drawn) [Compound 259, 1-{4-[4-(4-Tert-butyl-phenylamino)-phenoxy]-6-methoxy-quinolin-7-yloxy}-3-(4-pyrrolidin-1-yl-piperidin-1-yl)-propan-2-ol]
8 | < 10 | COc1cc2c(Oc3ccc(NC(=O)NCCC(C)(C)C)cc3)ccnc2cc1OCC(O)CN1CCC(N2CCCC2)CC1 (stereo not drawn) [Compound 262, 1-(3,3-Dimethyl-butyl)-3-(4-{7-[2-hydroxy-3-(4-pyrrolidin-1-yl-piperidin-1-yl)-propoxy]-6-methoxy-quinolin-4-yloxy}-phenyl)-urea]
9 | 11 | COc1cc2c(Oc3ccc(NC(=O)NCCC(C)(C)C)c(Cl)c3)ccnc2cc1OCCCN1CCC(CO)CC1 [Compound 266, 1-(2-Chloro-4-{7-[3-(4-hydroxymethyl-piperidin-1-yl)-propoxy]-6-methoxy-quinolin-4-yloxy}-phenyl)-3-(3,3-dimethyl-butyl)-urea]
10 | 26.7 | COc1cc2c(Oc3ccc(NC(=O)NCCC(C)(C)C)c(Cl)c3)ccnc2cc1OCCCN1CCC(CCO)CC1 [Compound 267, 1-[2-Chloro-4-(7-{3-[4-(2-hydroxy-ethyl)-piperidin-1-yl]-propoxy}-6-methoxy-quinolin-4-yloxy)-phenyl]-3-(3,3-dimethyl-butyl)-urea]
11 | 35.6 | COc1cc2c(Oc3ccc(NC(=O)NCCC(C)(C)C)cc3)ccnc2cc1OCCCN(C)CCO [Compound 269, 1-(3,3-Dimethyl-butyl)-3-[4-(7-{3-[(2-hydroxy-ethyl)-methyl-amino]-propoxy}-6-methoxy-quinolin-4-yloxy)-phenyl]-urea]
12 | 303 | COc1cc2c(Oc3ccc(Nc4ccc(C(C)(C)C)cc4)cc3F)ccnc2cc1OCCCN1CCC(CO)CC1 [Compound 270, [1-(3-{4-[4-(4-Tert-butyl-phenylamino)-2-fluoro-phenoxy]-6-methoxy-quinolin-7-yloxy}-propyl)-piperidin-4-yl]-methanol]
